{
  "source": "paper PMC5364125",
  "about": "(EJNMMI Research, 2017)",
  "origin": "cited, not measured here",
  "key": {"[1]": {"design": "method as in PMID 25616581", "details": "cited from earlier work"}, "[2]": {"test_system": "TSPO", "details": "cited from earlier work"}, "[3]": {"test_system": "TSPO", "details": "human subjects; cited from earlier work"}},
  "data": [
    {"smiles": "CC[C@@H](C)N(C)C(=O)c1cc2ccccc2c(-c2ccccc2Cl)n1", "note": "[(R)-PK11195, reference compound]", "values": [
      {"measurement": "logP", "setting": "[1]", "value": 2.54}
    ]},
    {"smiles": "CCN(CC)C(=O)Cc1c(-c2ccc(OC)cc2)nn2c(C)cc(C)nc12", "note": "[DPA-713]", "values": [
      {"measurement": "relative TSPO binding affinity to (R)-PK11195", "setting": "[2]", "value": 2, "unit": "fold"}
    ]},
    {"smiles": "CCN(CC)C(=O)Cc1c(-c2ccc(OCCF)cc2)nn2c(C)cc(C)nc12", "note": "[DPA-714]", "values": [
      {"measurement": "relative TSPO binding affinity to (R)-PK11195", "setting": "[2]", "value": 1.3, "unit": "fold"}
    ]},
    {"smiles": "CC[C@@H](C)N([11CH3])C(=O)c1cc2ccccc2c(-c2ccccc2Cl)n1", "note": "[(R)-[^11C]PK11195]", "values": [
      {"measurement": "V T caudate", "setting": "[3]", "value": "0.3 ± 0.1"},
      {"measurement": "V T cerebellum", "setting": "[3]", "value": "0.3 ± 0.1"},
      {"measurement": "V T frontal cortex", "setting": "[3]", "value": "0.3 ± 0.1"},
      {"measurement": "V T parietal cortex", "setting": "[3]", "value": "0.4 ± 0.1"},
      {"measurement": "V T putamen", "setting": "[3]", "value": "0.3 ± 0.1"},
      {"measurement": "V T thalamus", "setting": "[3]", "value": "0.4 ± 0.1"}
    ]}
  ]
}
